Laboratory results published in patent EP1205473A1, “VESAMICOL PIPERAZINE DERIVATIVES AND DRUGS CONTAINING THE SAME” (DAIICHI RADIOISOTOPE LABORATORIES, LTD., priority 1999, dated 2001).

Tests used:
[1] = molecular target: T1, vesamicol receptors (Rattus norvegicus, UniProt Q62666); assay: Receptor binding test: inhibition of I-125 labeled 5-iodobenzo vesamicol binding to brain homogenate; parameters: from tissue; host or cells: rat brain without cerebellum, P2 fraction; species or system Male Wistar rats; conditions: Inhibitive concentration at 50% (IC50), Vesamicol receptor, Table 5; incubated three hours at 37°C; no unit printed in table (b19 gives nM for DRC140)
T1 sequence (Q62666 1-530): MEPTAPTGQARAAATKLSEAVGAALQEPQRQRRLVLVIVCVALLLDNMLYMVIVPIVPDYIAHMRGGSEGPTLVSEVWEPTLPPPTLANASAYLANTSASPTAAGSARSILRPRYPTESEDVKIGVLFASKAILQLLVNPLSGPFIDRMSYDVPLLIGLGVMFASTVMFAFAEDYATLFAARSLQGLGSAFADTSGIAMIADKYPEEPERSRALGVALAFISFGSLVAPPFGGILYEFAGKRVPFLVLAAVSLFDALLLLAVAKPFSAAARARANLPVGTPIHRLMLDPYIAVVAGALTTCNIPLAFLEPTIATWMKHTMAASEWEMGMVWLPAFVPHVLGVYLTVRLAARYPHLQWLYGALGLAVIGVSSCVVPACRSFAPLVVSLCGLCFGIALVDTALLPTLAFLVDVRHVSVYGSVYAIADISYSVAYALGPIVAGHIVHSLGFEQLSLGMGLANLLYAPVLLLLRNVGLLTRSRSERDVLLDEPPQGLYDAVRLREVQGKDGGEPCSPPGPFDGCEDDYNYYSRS
Description: (§1) Properties relating to binding of the vesamicol piperazine derivatives of the present invention to various receptors were examined as follows. Specifically, ligands which combine with each receptor were incubated together with homogenates prepared as follows.
To measure affinity of vesamicol receptors, I-125 labeled 5-iodobenzo vesamicol (synthesized and labeled according to Jung et al., J. Med. Chem. 33, 2065-2068, 1990) was added to a brain homogenate prepared as follows. The vesamicol piperazine derivatives synthesized in the Examples were added at various concentrations. The mixture was then incubated for three hours at 37°C.
(§2) B (%) =((1 0 0 × [U])^(∩))/([ I C50 (])^(∩) (+ [U])^(∩)) [formula] wherein B(%) is the proportion of specific binding in the total binding, n indicates a Hill coefficient, and U is the concentration of unbound ligand.
Male Wistar rats were anesthetized with ether and were decapitated. The brains were immediately extracted. The cerebella were removed from the brains. 0.32 M sucrose (containing 4 mM HEPES (pH 7.4)) in an amount of five times the wet amount (weight) of this sample was added. The sample was homogenized by a potter-type homogenizer for 12 strokes while cooling with ice. 0.32 M sucrose in the same amount as the homogenate (total: 10 times the wet amount of the original sample) was added. The suspension thus obtained was centrifuged for 5 minutes at 1,000 x g. The precipitate was removed. The supernatant liquid was centrifuged at 9,200 x g for 15 minutes to separate the precipitate from the supernatant liquid. P2 fractions were suspended in a Tris-HCl buffer (pH 7.4) for binding experiments and stored at -80°C until the start of the binding experiment.

[2] = molecular target: T2, sigma receptors (Cavia porcellus, UniProt Q60492); assay: Receptor binding test: inhibition of tritium-labeled (+) pentazocine binding to brain homogenate; parameters: species or system male guinea pig
T2 construct: The brain was immediately extracted; The cerebellum was removed from the brain; from tissue; host or cells: guinea pig brain without cerebellum, membrane pellet
Description: as §1
To measure affinity to sigma receptors, tritium-labeled (+) pentazocine was added to a brain homogenate prepared as follows. The vesamicol piperazine derivatives synthesized in the Examples were added at various concentrations, and the mixture was incubated for two hours at room temperature.
as §2
A male guinea pig was anesthetized with ether and was decapitated. The brain was immediately extracted. The cerebellum was removed from the brain. 10 mM Tris-sucrose buffer solution (0.32 M sucrose + 10 mM Tris-HCl (pH 7.4)) was added in the amount of 10 ml/g of the tissue. The mixture was homogenized by a potter-type homogenizer for 6-10 strokes. The homogenate was centrifuged at 1,000 x g for 10 minutes at 4°C and the supernatant liquid was collected. The resulting pellets were suspended in the Tris-sucrose buffer solution at the concentration of 2 ml/g, followed by centrifugation at 1,000 x g for 10 minutes at 4°C. The supernatant liquids obtained by the two centrifugation at 1,000 x g were combined and centrifuged at 31,000 x g for 15 minutes at 4°C. The resulting pellets were suspended in a 10 mM Tris-HCl buffer solution (pH 7.4) at a concentration of 3 ml/g of tissue and incubated for 30 minutes at 25°C. After incubation, the suspension was centrifuged at 31,000 x g for 15 minutes at 4°C. The pellets obtained were suspended in a 10 mM Tris-HCl buffer solution (pH 7.4) to make a final concentration of 1.53 ml/g of tissue. The suspension was homogenized by a potter-type homogenizer for 5 strokes. The homogenate was stored at -80°C until the start of the experiment.

[3] = molecular target: T1, vesamicol receptors; assay: Inhibition experiment: inhibition of binding of radioactive-iodine-labeled DRC140 to P2 fractions; parameters: Synaptic vesicles were extracted and separated from the brain of a rat; from tissue; host or cells: rat brain without cerebellum: P2, crude synaptic vesicles, purified synaptic vesicles
[4] = Inhibitive concentration at 50% (IC50), Sigma α-1 receptor
[5] = inhibitive concentration at 50% (IC50), Receptor Sigma-1
[6] = inhibitive concentration at 50% (IC50), Receptor Vesamicol
[7] = Table 7, P2 fractions, inhibition of radioactive-iodine-labeled DRC140 binding, Binding site names the inhibitor's own site, read-out: IC50 (nM) Average ± S.D

T2 sequence (Q60492 whole entry): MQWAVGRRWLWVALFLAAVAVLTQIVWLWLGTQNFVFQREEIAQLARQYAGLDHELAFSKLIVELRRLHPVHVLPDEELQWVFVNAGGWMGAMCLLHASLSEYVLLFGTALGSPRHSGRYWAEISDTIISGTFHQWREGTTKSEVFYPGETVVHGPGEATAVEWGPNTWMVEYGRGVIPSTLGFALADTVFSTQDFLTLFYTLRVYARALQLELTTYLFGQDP

| Compound | IC50 [1] | IC50 [2, 5] | IC50 [3, 6] | other results |
| --- | --- | --- | --- | --- |
| COc1ccc(C)c(N2CCN([C@@H]3Cc4c(I)cccc4C[C@H]3O)CC2)c1 (racemic) [DRE378, (±)-trans-5-iodo-2-hydroxy-3-[4-[5-methoxy-2-methylphenyl]piperazinyl]tetralin] | 5.09 nM |  |  |  |
| Cc1ccc(C)c(N2CCN([C@@H]3Cc4ccc(I)cc4C[C@H]3O)CC2)c1 (racemic) [DRE366, (±)-trans-7-iodo-2-hydroxy-3-[4-[2,5-dimethylphenyl]-piperazinyl]tetralin] | 1.14 nM | 203 nM | 0.88 nM | IC50 [2, 4]: 203 nM |
| COC(=O)[C@H]1[C@H]2C[C@@H]3c4[nH]c5cc(OC)ccc5c4CCN3C[C@H]2C[C@@H](OC(=O)c2cc(OC)c(OC)c(OC)c2)[C@@H]1OC [Reserpine, reference compound] |  |  |  | IC50 [3, 7]: > 5000 nM |
| Nc1ccccc1N1CCN([C@@H]2Cc3cc(I)ccc3C[C@H]2O)CC1 (racemic) [DRG446, (±)-trans-6-iodo-2-hydroxy-3-[4-[2-aminophenyl]piperazinyl]tetralin] |  | 544 nM | 0.38 nM |  |
| Cc1cccc(C)c1N1CCN([C@@H]2Cc3c(I)cccc3C[C@H]2O)CC1 (racemic) [DRF382, (±)-trans-5-iodo-2-hydroxy-3-[4-[2,6-dimethylphenyl]piperazinyl]tetralin] | 5.04 nM |  | 6.94 nM | IC50 [2, 4]: 1300 nM |
| CCc1ccccc1N1CCN([C@@H]2Cc3c(I)cccc3C[C@H]2O)CC1 (racemic) [DRE353, (±)-trans-5-iodo-2-hydroxy-3-[4-[2-ethylphenyl]piperazinyl]tetralin] | 8.74 nM | 5110 nM | 1.1 nM | IC50 [2, 4]: 6900 nM |
| CN(C(=O)Cc1ccc(Cl)c(Cl)c1)C(CN1CCCC1)c1cccc(OCC(=O)O)c1 (stereo not drawn) [ICI204, 448, reference compound] |  |  |  | IC50 ([3]; IC50 (nM) Average ± S.D): > 5000 nM |
| CNC(=O)Oc1ccc2c(c1)[C@]1(C)CCN(C)[C@@H]1N2C [Physostigmine, reference compound] |  |  |  | IC50 ([3]; IC50 (nM) Average ± S.D): > 5000 nM |
| Cc1ccc(I)cc1N1CCN([C@@H]2Cc3c(N)cccc3C[C@H]2O)CC1 (racemic) [DRF383, (±)-trans-5-amino-2-hydroxy-3-[4-[5-iodo-2-methylphenyl]-piperazinyl]tetralin] | 8.74 nM |  | 8.47 nM | IC50 [2, 4]: 6900 nM |
| Cc1cccc(N2CCN([C@@H]3Cc4c(I)cccc4C[C@H]3O)CC2)c1C (racemic) [DRE354, (±)-trans-5-iodo-2-hydroxy-3-[4-[2,3-dimethylphenyl]piperazinyl]tetralin] | 1.41 nM | 4560 nM | 1.67 nM | IC50 [2, 4]: 428 nM |
| Cc1ccccc1N1CCN([C@@H]2Cc3c(I)cccc3C[C@H]2O)CC1 (racemic) [DRE334, (±)-trans-5-iodo-2-hydroxy-3-[4-[2-methylphenyl]piperazinyl]tetralin] | 0.72 nM | 4480 nM | 0.74 nM | IC50 [2, 4]: 109 nM |
| CC(=O)Nc1ccccc1N1CCN([C@@H]2Cc3c(I)cccc3C[C@H]2O)CC1 (racemic) [DRF401, (±)-trans-5-iodo-2-hydroxy-3-[4-[N-acetyl-2-aminophenyl]-piperazinyl]tetralin] |  |  | 0.89 nM |  |
| Oc1ccccc1N1CCN([C@@H]2Cc3c(I)cccc3C[C@H]2O)CC1 (racemic) [DRF403, (±)-trans-5-iodo-2-hydroxy-3-[4-[2-hydroxyphenyl]piperazinyl]tetralin] |  | 3030 nM | 2.42 nM |  |
| O[C@@H]1Cc2cccc(I)c2C[C@H]1N1CCN(c2ccccn2)CC1 (racemic) [DRE328, (±)-trans-5-iodo-2-hydroxy-3-[4-[2-pyridyl]-piperazinyl]tetralin] | 38.4 nM |  |  |  |
| 5-iodobenzovesamicol [(+)-IBVM, reference compound] |  |  |  | IC50 ([3]; read-out: inhibitive concentration at 50% (IC50), Receptor Vesamicol, Table 9, high purity derivatives (HPLC purified), I-125 labeled DRC140, P2 fractions, 3 hours at 37°C, unit inferred): 0.5 nM |
| Cc1cccc(N2CCN([C@@H]3Cc4c(I)cccc4C[C@H]3O)CC2)c1 (racemic) [DRF380, (±)-trans-5-iodo-2-hydroxy-3-[4-[3-methylphenyl]piperazinyl]tetralin] | 3.69 nM | 16300 nM | 2.47 nM |  |
| Cc1ccc(C)c(N2CCN([C@@H]3Cc4cc(I)ccc4C[C@H]3O)CC2)c1 (racemic) [DRE365, (±)-trans-6-iodo-2-hydroxy-3-[4-[2,5-dimethylphenyl]piperazinyl]tetralin] | 2.9 nM |  |  |  |
| Nc1ccccc1N1CCN([C@@H]2Cc3c(I)cccc3C[C@H]2O)CC1 (racemic) [DRF402, (±)-trans-5-iodo-2-hydroxy-3-[4-[2-aminophenyl]piperazinyl]tetralin] |  |  | 0.63 nM |  |
| COc1ccccc1N1CCN(CCCCN2C(=O)c3ccccc3C2=O)CC1 [NAN-190, reference compound] |  |  |  | IC50 [3, 7]: > 5000 nM |
| OC1CCCCC1N1CCC(c2ccccc2)CC1 (single isomer, unassigned; (+)) [(+)-Vesamicol, 2-(4-phenyl-piperidino)cyclohexanol, reference compound] |  |  |  | IC50 ([3]; IC50 (nM) Average ± S.D): > 5000 nM |
| COc1ccccc1N1CCN([C@@H]2Cc3c(I)cccc3C[C@H]2O)CC1 (racemic) [DRF400, (±)-trans-5-iodo-2-hydroxy-3-[4-[2-methoxyphenyl]piperazinyl]tetralin] |  | 28800 nM | 1.09 nM |  |
| Cc1ccccc1N1CCN([C@@H]2Cc3c(I)cccc3C[C@H]2O)CC1 (single isomer, unassigned) [DRE341, (+)-trans-5-iodo-2-hydroxy-3-[4-[2-methylphenyl]piperazinyl]tetralin] |  |  | 1.96 nM |  |
| COc1ccccc1N1CCN(CCCNc2c(C)c(=O)n(C)c(=O)n2C)CC1 [5-Methylurapidil, reference compound] |  |  |  | IC50 ([3]; IC50 (nM) Average ± S.D): > 5000 nM |
| Cc1ccccc1N1CCN([C@@H]2Cc3cccc(I)c3C[C@H]2O)CC1 (racemic) [DRE335, (+)-trans-8-iodo-2-hydroxy-3-[4-[2-methylphenyl]piperazinyl]tetralin] | 2.8 nM |  |  |  |
| CC1=NN=C(c2ccc(N)cc2)c2cc3c(cc2C1)OCO3 [GYKI52466, reference compound] |  |  |  | IC50 ([3]; IC50 (nM) Average ± S.D): > 5000 nM |
| Nc1ccccc1N1CCN([C@@H]2Cc3c(I)cccc3C[C@H]2O)CC1 (single isomer, unassigned) [DRF419, (-)-trans-5-iodo-2-hydroxy-3-[4-[2-aminophenyl]piperazinyl]tetralin] |  | 4710 nM | 0.3 nM |  |
